Species: Rattus norvegicus
Experiment: Open TG-GATES - Regimen: Daily Repeat
Type: toxicity, organism-based, Sprague-Dawley
Set-up: regimen Daily Repeat, gender Male, age 6 weeks
Conditions: in vivo, po, route gavage; for A/G / ALP / ALT / AST / BUN / CRE / Ca / Cl / DBIL / GLC / IP / K / LDH / Na / PL / RALB / TBIL / TC / TG / TP / gamma-GTP: tissue Plasma; for APTT / Bas / Eos / Fbg / Hb / Ht / Lym / MCH / MCHC / MCV / Mono / Neu / PT / Plat / RBC / Ret / WBC: tissue Blood; for KIDNEY_L / KIDNEY_R / KIDNEY_TOTAL: tissue Kidney; for LIVER: tissue Liver
[1] = 1 mg/kg, […], dose level Low, time 14 day
[2] = 1 mg/kg, […], dose level Low, time 28 day
[3] = 2 mg/kg, 72 h, dose level Middle, time 3 day
[4] = 2 mg/kg, […], dose level Middle, time 7 day
[5] = 2 mg/kg, […], dose level Middle, time 14 day
[6] = 2 mg/kg, […], dose level Middle, time 28 day
[7] = 5 mg/kg, 72 h, dose level High, time 3 day
[8] = 5 mg/kg, […], dose level High, time 7 day
[9] = 5 mg/kg, […], dose level High, time 14 day

SMILES: COc1ccc2c(c1)c(CC(=O)O)c(C)n2C(=O)c1ccc(Cl)cc1 [INDOMETHACIN]
- A/G [1]: 1.8
- ALP [1]: 725.6 IU/L
- ALT [1]: 33.6 IU/L
- AST [1]: 60.6 IU/L
- BUN [1]: 19.6 mg/dL
- CRE [1]: 0.6 mg/dL
- Ca [1]: 10.5 mg/dL
- Cl [1]: 105.6 meq/L
- DBIL [1]: 0.004 mg/dL
- GLC [1]: 194.8 mg/dL
- IP [1]: 8.1 mg/dL
- K [1]: 4.5 meq/L
- LDH [1]: 87.2 IU/L
- Na [1]: 139.4 meq/L
- PL [1]: 165.2 mg/dL
- RALB [1]: 4.2 g/dL
- TBIL [1]: 0.3 mg/dL
- TC [1]: 81.2 mg/dL
- TG [1]: 161 mg/dL
- TP [1]: 6.5 g/dL
- gamma-GTP [1]: 1.4 IU/L
- A/G [2]: 1.9
- ALP [2]: 695.6 IU/L
- ALT [2]: 31 IU/L
- AST [2]: 62.6 IU/L
- BUN [2]: 21.6 mg/dL
- CRE [2]: 0.7 mg/dL
- Ca [2]: 10.6 mg/dL
- Cl [2]: 106.6 meq/L
- DBIL [2]: 0.008 mg/dL
- GLC [2]: 203.8 mg/dL
- IP [2]: 7.8 mg/dL
- K [2]: 4.2 meq/L
- LDH [2]: 101.8 IU/L
- Na [2]: 139.6 meq/L
- PL [2]: 157.8 mg/dL
- RALB [2]: 4.2 g/dL
- TBIL [2]: 0.3 mg/dL
- TC [2]: 77.8 mg/dL
- TG [2]: 178.4 mg/dL
- TP [2]: 6.5 g/dL
- gamma-GTP [2]: 1.2 IU/L
- TERMINAL_BW [3]: 238.9 g
- APTT [3]: 16 s
- Bas [3]: 0%
- Eos [3]: 0.6%
- Fbg [3]: 218.2 mg/dL
- Hb [3]: 13.5 g/dL
- Ht [3]: 40.5%
- Lym [3]: 82.2%
- MCH [3]: 21.1 pg
- MCHC [3]: 33.4%
- MCV [3]: 63.3 fL
- Mono [3]: 6.4%
- Neu [3]: 10.8%
- PT [3]: 11.1 s
- Plat [3]: 112.9 x10_4/uL
- RBC [3]: 638.8 x10_4/ul
- Ret [3]: 7.1%
- WBC [3]: 126.4 x10_2/uL
- KIDNEY_L [3]: 1.1 g
- KIDNEY_R [3]: 1.1 g
- KIDNEY_TOTAL [3]: 2.1 g
- LIVER [3]: 11.6 g
- A/G [3]: 2.1
- ALP [3]: 1212.4 IU/L
- ALT [3]: 32.8 IU/L
- AST [3]: 62 IU/L
- BUN [3]: 17 mg/dL
- CRE [3]: 0.6 mg/dL
- Ca [3]: 10.5 mg/dL
- Cl [3]: 107.2 meq/L
- DBIL [3]: 0.058 mg/dL
- GLC [3]: 199.6 mg/dL
- IP [3]: 8.3 mg/dL
- K [3]: 4.9 meq/L
- LDH [3]: 91.6 IU/L
- Na [3]: 139.6 meq/L
- PL [3]: 143.8 mg/dL
- RALB [3]: 3.9 g/dL
- TBIL [3]: 0.4 mg/dL
- TC [3]: 78.2 mg/dL
- TG [3]: 64.8 mg/dL
- TP [3]: 5.7 g/dL
- gamma-GTP [3]: 1 IU/L
- TERMINAL_BW [4]: 284.3 g
- TERMINAL_BW [5]: 341.8 g
- TERMINAL_BW [6]: 428.5 g
- APTT [4]: 16.5 s
- Bas [4]: 0%
- Eos [4]: 1%
- Fbg [4]: 240 mg/dL
- Hb [4]: 13.7 g/dL
- Ht [4]: 41.4%
- Lym [4]: 79.8%
- MCH [4]: 20.6 pg
- MCHC [4]: 33.1%
- MCV [4]: 62.2 fL
- Mono [4]: 8%
- Neu [4]: 11.6%
- PT [4]: 11.7 s
- Plat [4]: 112.9 x10_4/uL
- RBC [4]: 666.6 x10_4/ul
- Ret [4]: 6.2%
- WBC [4]: 126.6 x10_2/uL
- APTT [5]: 16.2 s
- Bas [5]: 0%
- Eos [5]: 0.8%
- Fbg [5]: 236.6 mg/dL
- Hb [5]: 14.2 g/dL
- Ht [5]: 43.1%
- Lym [5]: 86.4%
- MCH [5]: 20.5 pg
- MCHC [5]: 32.9%
- MCV [5]: 62.4 fL
- Mono [5]: 5.8%
- Neu [5]: 7.2%
- PT [5]: 11.8 s
- Plat [5]: 114.5 x10_4/uL
- RBC [5]: 689.8 x10_4/ul
- Ret [5]: 5.1%
- WBC [5]: 134.6 x10_2/uL
- APTT [6]: 16.9 s
- Bas [6]: 0%
- Eos [6]: 1%
- Fbg [6]: 255.2 mg/dL
- Hb [6]: 15.1 g/dL
- Ht [6]: 45.3%
- Lym [6]: 83.6%
- MCH [6]: 19.6 pg
- MCHC [6]: 33.4%
- MCV [6]: 58.6 fL
- Mono [6]: 3.8%
- Neu [6]: 11.4%
- PT [6]: 11.9 s
- Plat [6]: 101.6 x10_4/uL
- RBC [6]: 774.2 x10_4/ul
- Ret [6]: 3.1%
- WBC [6]: 136.4 x10_2/uL
- KIDNEY_L [4]: 1.2 g
- KIDNEY_R [4]: 1.2 g
- KIDNEY_TOTAL [4]: 2.4 g
- KIDNEY_L [5]: 1.3 g
- KIDNEY_R [5]: 1.3 g
- KIDNEY_TOTAL [5]: 2.6 g
- KIDNEY_L [6]: 1.5 g
- KIDNEY_R [6]: 1.5 g
- KIDNEY_TOTAL [6]: 3 g
- LIVER [4]: 14.5 g
- LIVER [5]: 16.3 g
- LIVER [6]: 18.6 g
- A/G [4]: 2
- ALP [4]: 1041.2 IU/L
- ALT [4]: 33.2 IU/L
- AST [4]: 61.4 IU/L
- BUN [4]: 19.4 mg/dL
- CRE [4]: 0.6 mg/dL
- Ca [4]: 11.3 mg/dL
- Cl [4]: 106.4 meq/L
- DBIL [4]: 0.006 mg/dL
- GLC [4]: 192.2 mg/dL
- IP [4]: 8.4 mg/dL
- K [4]: 4.8 meq/L
- LDH [4]: 105.8 IU/L
- Na [4]: 140 meq/L
- PL [4]: 163.8 mg/dL
- RALB [4]: 4.1 g/dL
- TBIL [4]: 0.4 mg/dL
- TC [4]: 88 mg/dL
- TG [4]: 134.2 mg/dL
- TP [4]: 6.3 g/dL
- gamma-GTP [4]: 1 IU/L
- A/G [5]: 1.9
- ALP [5]: 898.8 IU/L
- ALT [5]: 32 IU/L
- AST [5]: 53.2 IU/L
- BUN [5]: 22.6 mg/dL
- CRE [5]: 0.6 mg/dL
- Ca [5]: 10.8 mg/dL
- Cl [5]: 106.2 meq/L
- DBIL [5]: 0.006 mg/dL
- GLC [5]: 201.2 mg/dL
- IP [5]: 8.3 mg/dL
- K [5]: 4.7 meq/L
- LDH [5]: 89.8 IU/L
- Na [5]: 139.6 meq/L
- PL [5]: 151.4 mg/dL
- RALB [5]: 4.1 g/dL
- TBIL [5]: 0.3 mg/dL
- TC [5]: 72.2 mg/dL
- TG [5]: 141.2 mg/dL
- TP [5]: 6.3 g/dL
- gamma-GTP [5]: 1 IU/L
- A/G [6]: 1.7
- ALP [6]: 678.8 IU/L
- ALT [6]: 31.6 IU/L
- AST [6]: 65 IU/L
- BUN [6]: 21.4 mg/dL
- CRE [6]: 0.7 mg/dL
- Ca [6]: 10.7 mg/dL
- Cl [6]: 107 meq/L
- DBIL [6]: 0.004 mg/dL
- GLC [6]: 185.2 mg/dL
- IP [6]: 7.5 mg/dL
- K [6]: 4.4 meq/L
- LDH [6]: 90.4 IU/L
- Na [6]: 140.4 meq/L
- PL [6]: 157.4 mg/dL
- RALB [6]: 4.3 g/dL
- TBIL [6]: 0.3 mg/dL
- TC [6]: 80 mg/dL
- TG [6]: 179.2 mg/dL
- TP [6]: 6.8 g/dL
- gamma-GTP [6]: 1.8 IU/L
- TERMINAL_BW [7]: 240.2 g
- APTT [7]: 16.8 s
- Bas [7]: 0%
- Eos [7]: 0.6%
- Fbg [7]: 308.4 mg/dL
- Hb [7]: 12.7 g/dL
- Ht [7]: 38%
- Lym [7]: 68.4%
- MCH [7]: 21.5 pg
- MCHC [7]: 33.5%
- MCV [7]: 64.4 fL
- Mono [7]: 12.4%
- Neu [7]: 18.6%
- PT [7]: 11.1 s
- Plat [7]: 98 x10_4/uL
- RBC [7]: 589.8 x10_4/ul
- Ret [7]: 7.9%
- WBC [7]: 137.8 x10_2/uL
- KIDNEY_L [7]: 1.1 g
- KIDNEY_R [7]: 1.1 g
- KIDNEY_TOTAL [7]: 2.2 g
- LIVER [7]: 12.4 g
- A/G [7]: 1.7
- ALP [7]: 739.2 IU/L
- ALT [7]: 29.8 IU/L
- AST [7]: 54 IU/L
- BUN [7]: 16.2 mg/dL
- CRE [7]: 0.6 mg/dL
- Ca [7]: 10.5 mg/dL
- Cl [7]: 107.6 meq/L
- DBIL [7]: 0.038 mg/dL
- GLC [7]: 191.6 mg/dL
- IP [7]: 8.3 mg/dL
- K [7]: 4.6 meq/L
- LDH [7]: 160.4 IU/L
- Na [7]: 140.4 meq/L
- PL [7]: 147 mg/dL
- RALB [7]: 3.4 g/dL
- TBIL [7]: 0.3 mg/dL
- TC [7]: 76.2 mg/dL
- TG [7]: 135.4 mg/dL
- TP [7]: 5.5 g/dL
- gamma-GTP [7]: 1.6 IU/L
- TERMINAL_BW [8]: 244 g
- APTT [8]: 18.4 s
- Bas [8]: 0%
- Eos [8]: 0.8%
- Fbg [8]: 377 mg/dL
- Hb [8]: 11.7 g/dL
- Ht [8]: 35%
- Lym [8]: 51.5%
- MCH [8]: 20.4 pg
- MCHC [8]: 33.4%
- MCV [8]: 61.1 fL
- Mono [8]: 12.2%
- Neu [8]: 36%
- PT [8]: 11.8 s
- Plat [8]: 143.2 x10_4/uL
- RBC [8]: 571.8 x10_4/ul
- Ret [8]: 10.2%
- WBC [8]: 128.2 x10_2/uL
- PT [9]: 11.3 s
- KIDNEY_L [8]: 1.1 g
- KIDNEY_R [8]: 1.1 g
- KIDNEY_TOTAL [8]: 2.2 g
- LIVER [8]: 11.6 g
- A/G [8]: 1.2
- ALP [8]: 1313 IU/L
- ALT [8]: 31.2 IU/L
- AST [8]: 91.5 IU/L
- BUN [8]: 19.8 mg/dL
- CRE [8]: 0.6 mg/dL
- Ca [8]: 10.8 mg/dL
- Cl [8]: 102.2 meq/L
- DBIL [8]: 0.1 mg/dL
- GLC [8]: 169.8 mg/dL
- IP [8]: 11.3 mg/dL
- K [8]: 6.1 meq/L
- LDH [8]: 180.8 IU/L
- Na [8]: 133.5 meq/L
- PL [8]: 135.8 mg/dL
- RALB [8]: 2.9 g/dL
- TBIL [8]: 0.4 mg/dL
- TC [8]: 71 mg/dL
- TG [8]: 106.5 mg/dL
- TP [8]: 5.6 g/dL
- gamma-GTP [8]: 5.8 IU/L
- TBIL [9]: 0.3 mg/dL
- TC [9]: 66.5 mg/dL

— ChEMBL document CHEMBL3885861, “Open TG-GATES”
